Patent US12344600B2, “c-Myc mRNA translation modulators and uses thereof in the treatment of cancer” (Anima Biotech Inc., priority 2022, dated 2025)
Starred links: 1 amine or outer side, 2 acyl side, 3 side chain; linkers in the order of their positions; H or OH if unused. Positions of bridges follow the written chain, without caps; N, C: chain ends. Non-standard residues stand in square brackets, D forms with d. Residues, ends and D or L forms follow the SMILES beside them. Chains are numbered I, II in the order given. Actinocin(9to1) = Cc1c2oc3c(C)ccc(C(=O)[*:1])c3nc-2c(C(=O)[*:2])c(N)c1=O; NMeV = CN[C@H](C(=O)O)C(C)C; Sar = CNCC(=O)O

Columns and labels:
Assay type in all cases: cell-based, human
[1] = system: c-Myc; assay: c-Myc immunofluorescence assay; details: A549 cells, 24 hours; for Myc Efficacy (−LogEC50): anti-c-Myc immunofluorescence
Procedure, shortened: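 Read-out is imaged c-Myc immunofluorescence, nucleus-segmented, in A549 lung carcinoma cells exposed to compound dose series for 24 h after 48 h growth. Fixation 4% paraformaldehyde, Triton permeabilization, antibody staining at room temperature; EC50 from logistic fit of signal versus concentration.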

[2] = system: c-Myc protein; assay: c-Myc protein level in A549 cells (imaging)
Source text: (§1) A549 cells were exposed to vehicle, general transcription inhibitor actinomycin D or anti-c-Myc compound. […] Cell nuclei stained with DAPI, c-Myc protein, c-Myc mRNA and transcription sites are signed on the images.

[3] = system: c-Myc mRNA; assay: c-Myc mRNA level and transcription sites in A549 cells (imaging)
Source text: as §1

[4] = system: c-Myc mRNA; assay: Fluorescent in situ hybridization (FISH) assay; details: A549 cells, 4 hours, FIG. 3 lower panel
Experimental: A549 cells were incubated with compounds for 24 hours (FIG. 3, upper panel) and c-Myc protein detected by immunofluorescence. In parallel, A549 cells were incubated with compounds for 4 hours and c-Myc mRNA was visualized by microscopy using c-Myc mRNA specific fluorescent-tagged probes (FIG. 3, lower panel).
A549 cells were grown in 384-wells plates (Perkin Elmer, Cat. 6057300) for 48 hours, treated with compounds for 4 hours and then fixed for 20 min in 4% paraformaldehyde. Next day, permeabilization was done for 90 min at 4° C., using 70% ethanol. Then, the cells were incubated for 10 min with 10% formamide in 10% saline-sodium citrate. Fluorescently labeled customer DNA probes that target c-Myc (Cy3, BioSearch Technologies, Cat. SMF-1063-5) and GAPDH (Cy5, BioSearch Technologies, Cat. SMF-2019-1) mRNAs were hybridized overnight at 37° C. in a dark chamber in 10% formamide. The next day, cells were washed twice with 10% formamide for 30 min. […]
Following RNA FISH experiments, images of cells were taken with Operetta (Perkin Elmer, USA), a wide-field fluorescence microscope at ×63 magnification. […] In Columbus, cells were identified by their nucleus, using the “Find Nuceli” module, cytoplasm was detected based on the FISH-channel, and single mRNAs in the cytoplasm and transcription sites in the nucleus were detected using “Find Spots” module. […]

[5] = system: global protein synthesis; assay: AHA metabolic labeling in A549 cells
Source text: FIG. 2 depicts selective regulation of c-Myc translation. […] Cell nuclei stained with DAPI and AHA metabolic labeling are signed on the images.

[6] = system: global translation in A549 cells; assay: Metabolic labeling assay (global translation); details: 4 hour pulse, FIG. 2
Experimental: A549 cells were incubated with active compounds and metabolically labelled with fluorescent methionine for a 4 hour pulse (click-chemistry modified methionine). Cells were fixed and newly synthesized proteins detected by using click-chemistry with a fluorescent detector (FIG. 2).
A549 cells were seeded at 3,200 cells per well in complete culture medium. Plates were incubated at 37° C., 5% CO2 overnight. After 48 hours of incubation, the growth medium was aspirated, and cells were washed three times with HBSS. Metabolic labeling medium DMEM (-Cys -Met), containing 10% dialyzed FBS, 1% penicillin-streptomycin and 1% L-glutamine was added to the cells for 30 min. Then medium was replaced by metabolic labeling medium containing 25 μM L-Azidohomoalanine (AHA, ThermoFisher) and tested compounds at a final concentration of 30 μM, and cells were incubated for 4 hours at 37° C., 5% CO2. Cells were washed by HBSS at 37° C. for 15 min before fixing with 4% paraformaldehyde. Cells were washed twice with 3% BSA in PBS before permeabilization with 0.5% Triton X-100 in PBS for 20 min. The AHA staining with Alexa Fluor™ 555 alkyne was performed according to the manufacturer protocol. Images were captured with Operetta microscope (Perkin Elmer) using ×20 high NA objective lens.

O=C(NCCCN1CCC(Cc2ccccn2)CC1)N1CCN(c2nc(-c3ccc(Cl)cc3)no2)CC1 [Compound 458, 4-(3-(4-chlorophenyl)-1,2,4-oxadiazol-5-yl)-N-(3-(4-(pyridin-2-ylmethyl)piperidin-1-yl)propyl)piperazine-1-carboxamide]
Myc Efficacy (−LogEC50) [1]: +++ (+++ ≥6)

O=C(NCCCN1CCC(Cc2ccccn2)CC1)N1CCN(c2nc(-c3ccc(C(F)(F)F)cc3)no2)CC1 [Compound 459, N-(3-(4-(pyridin-2-ylmethyl)piperidin-1-yl)propyl)-4-(3-(4-(trifluoromethyl)phenyl)-1,2,4-oxadiazol-5-yl)piperazine-1-carboxamide]
Myc Efficacy (−LogEC50) [1]: +++ (+++ ≥6)

O=C(NCCCN1CCC(Cc2ccccn2)CC1)N1CCN(c2nc(-c3ccc(C(F)F)cc3)no2)CC1 [Compound 460, 4-(3-(4-(difluoromethyl)phenyl)-1,2,4-oxadiazol-5-yl)-N-(3-(4-(pyridin-2-ylmethyl)piperidin-1-yl)propyl)piperazine-1-carboxamide]
Myc Efficacy (−LogEC50) [1]: +++ (+++ ≥6)

Cc1ccc(CN2CCC(CNC(=O)N3CCN(c4nc(-c5ccc(OCCO)cc5)no4)CC3)C2)cc1 (centres unmarked) [Compound 462, 4-(3-(4-(2-hydroxyethoxy)phenyl)-1,2,4-oxadiazol-5-yl)-N-((1-(4-methylbenzyl)pyrrolidin-3-yl)methyl)piperazine-1-carboxamide]
Myc Efficacy (−LogEC50) [1]: ++ (++ ≥5 and <6)

Cc1ccc(CN2CCC(CNC(=O)C3CCN(c4nc(-c5ccc(OCCO)cc5)no4)CC3)C2)cc1 (centres unmarked) [Compound 463, 1-(3-(4-(2-hydroxyethoxy)phenyl)-1,2,4-oxadiazol-5-yl)-N-((1-(4-methylbenzyl)pyrrolidin-3-yl)methyl)piperidine-4-carboxamide]
Myc Efficacy (−LogEC50) [1]: + (+ >3 and <5)

COc1ccc(-c2noc(N3CCC(C(=O)NCC4CCN(C[C@@H]5CCCN(C)C5)C4)CC3)n2)cc1 (stereo partly drawn) [Compound 464, 1-(3-(4-methoxyphenyl)-1,2,4-oxadiazol-5-yl)-N-((1-(((R)-1-methylpiperidin-3-yl)methyl)pyrrolidin-3-yl)methyl)piperidine-4-carboxamide]
Myc Efficacy (−LogEC50) [1]: + (+ >3 and <5)

COc1ccc(-c2noc(N3CCC(C(=O)NC[C@H]4CCN(C[C@H]5CCCN(C)C5)C4)CC3)n2)cc1 [Compound 465, 1-(3-(4-methoxyphenyl)-1,2,4-oxadiazol-5-yl)-N-(((R)-1-(((S)-1-methylpiperidin-3-yl)methyl)pyrrolidin-3-yl)methyl)piperidine-4-carboxamide]
Myc Efficacy (−LogEC50) [1]: + (+ >3 and <5)

COc1ccc(-c2noc(N3CCC(C(=O)NC[C@@H]4CCN(C[C@H]5CCCN(C)C5)C4)CC3)n2)cc1 [Compound 466, 1-(3-(4-methoxyphenyl)-1,2,4-oxadiazol-5-yl)-N-(((S)-1-(((S)-1-methylpiperidin-3-yl)methyl)pyrrolidin-3-yl)methyl)piperidine-4-carboxamide]
Myc Efficacy (−LogEC50) [1]: + (+ >3 and <5)

CN1CCC[C@H](CN2CCC(CNC(=O)C3CCN(c4nc(-c5ccc(C#N)cc5)no4)CC3)C2)C1 (stereo partly drawn) [Compound 467, 1-(3-(4-cyanophenyl)-1,2,4-oxadiazol-5-yl)-N-((1-(((S)-1-methylpiperidin-3-yl)methyl)pyrrolidin-3-yl)methyl)piperidine-4-carboxamide]
Myc Efficacy (−LogEC50) [1]: + (+ >3 and <5)

CN1CCC[C@H](CN2CCC(CNC(=O)C3CCN(c4nc(-c5ccc(Cl)cc5)no4)CC3)C2)C1 (stereo partly drawn) [Compound 468, 1-(3-(4-chlorophenyl)-1,2,4-oxadiazol-5-yl)-N-((1-(((S)-1-methylpiperidin-3-yl)methyl)pyrrolidin-3-yl)methyl)piperidine-4-carboxamide]
Myc Efficacy (−LogEC50) [1]: ++ (++ ≥5 and <6)

Cc1ccc(CN2CCC(CNC(=O)N3CCN(c4nc(-c5ccc(OCC(O)CO)cc5)no4)CC3)C2)cc1 (centres unmarked) [Compound 473, 4-(3-(4-(2,3-dihydroxypropoxy)phenyl)-1,2,4-oxadiazol-5-yl)-N-((1-(4-methylbenzyl)pyrrolidin-3-yl)methyl)piperazine-1-carboxamide]
Myc Efficacy (−LogEC50) [1]: + (+ >3 and <5)

CN1CCC[C@@H](CN2CC[C@@H](CNC(=O)C3CCN(c4nc(-c5ccc(Cl)cc5)no4)CC3)C2)C1 [Compound 474, 1-(3-(4-chlorophenyl)-1,2,4-oxadiazol-5-yl)-N-(((S)-1-(((R)-1-methylpiperidin-3-yl)methyl)pyrrolidin-3-yl)methyl)piperidine-4-carboxamide]
Myc Efficacy (−LogEC50) [1]: ++ (++ ≥5 and <6)

CN1CCC[C@@H](CN2CC[C@H](CNC(=O)C3CCN(c4nc(-c5ccc(Cl)cc5)no4)CC3)C2)C1 [Compound 475, 1-(3-(4-chlorophenyl)-1,2,4-oxadiazol-5-yl)-N-(((R)-1-(((R)-1-methylpiperidin-3-yl)methyl)pyrrolidin-3-yl)methyl)piperidine-4-carboxamide]
Myc Efficacy (−LogEC50) [1]: ++ (++ ≥5 and <6)

Cc1c2oc3c(C)ccc(C(=O)N[C@@H]4C(=O)N[C@H](C(C)C)C(=O)N5CCC[C@H]5C(=O)N(C)CC(=O)N(C)[C@@H](C(C)C)C(=O)O[C@@H]4C)c3nc-2c(C(=O)N[C@@H]2C(=O)N[C@H](C(C)C)C(=O)N3CCC[C@H]3C(=O)N(C)CC(=O)N(C)[C@@H](C(C)C)C(=O)O[C@@H]2C)c(N)c1=O [actinomycin D] (I: T[dV]P[Sar][NMeV] / II: T[dV]P[Sar][NMeV]; ester I:1-I:C, II:1-II:C; linker I:N-II:N via Actinocin(9to1))
c-Myc protein by immunofluorescence ([1]; FIG. 3 upper panel): reduced c-Myc protein
c-Myc protein level [2]: significant decrease
c-Myc mRNA level as well as transcription sites [3]: complete reduction
c-Myc mRNA in the cytoplasm [4]: inhibited
c-Myc transcription site (spots inside the nucleus) [4]: inhibited transcription site

C[C@@H]1C[C@@H]([C@H](O)CC2CC(=O)NC(=O)C2)C(=O)[C@@H](C)C1 [cycloheximide]
global protein synthesis (AHA metabolic labeling) [5]: total inhibition
incorporation of modified methionine (global translation) [6]: completely reduced incorporation of modified methionine
